# What was measured:
# Format in all cases: in vivo
# [1] = test system: foxtail, giant (giant foxtail, Setaria faberii); assay: Test A greenhouse herbicide test, pre- and postemergence
# Procedure, shortened: (§1)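 Seeds sown in loam–sand blend got a preemergence directed soil spray of compound in non-phytotoxic solvent with surfactant. Postemergence treatment was given at 2–10 cm, one- to two-leaf stage. After ~10 d in greenhouse, injury was rated visually vs untreated controls, 0 (no effect) to 100 (complete control).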
# [2] = test system: ryegrass, Italian (Italian ryegrass, Lolium multiflorum); assay: as above
# Procedure, shortened: as §1
# [3] = test system: chickweed (common chickweed, Stellaria media); assay: Test C greenhouse herbicide test, postemergence
# Procedure, shortened: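 Postemergence foliar treatment, 1- to 4-leaf stage (2–18 cm), peat/vermiculite medium; greenhouse 13–15 d; visual rating vs controls, 0 = no effect, 100 = complete control; dash = no result.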
# [4] = test system: barnyardgrass (Echinochloa crus-galli); assay: Test B flooded paddy test; conditions: 250 g ai/ha, Flood; visual rating on scale of 0 to 100 where 0 is no effect and 100 is complete control; 13 to 15 d after treatment
# Procedure, shortened: (§2)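 Plants at the 2-leaf stage were flooded to 3 cm above soil, and test compounds were applied directly into the paddy water, which was held at that depth throughout. After 13 to 15 d in a greenhouse, injury was rated visually against untreated controls on a 0–100 scale (0 no effect, 100 complete control).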
# [5] = test system: ducksalad (Heteranthera limosa); assay: Test B flooded paddy test; conditions: 250 g ai/ha, Flood; visual rating on scale of 0 to 100 where 0 is no effect and 100 is complete control; 13 to 15 d after treatment
# Procedure, shortened: as §2
# [6] = test system: sedge, umbrella (small-flower umbrella sedge, Cyperus difformis); assay: Test B flooded paddy test; conditions: 250 g ai/ha, Flood; visual rating on scale of 0 to 100 where 0 is no effect and 100 is complete control; 13 to 15 d after treatment
# Procedure, shortened: as §2
# rice (Oryza sativa) = assay: Test B flooded paddy test; conditions: 250 g ai/ha, Flood; visual rating on scale of 0 to 100 where 0 is no effect and 100 is complete control; 13 to 15 d after treatment
# Procedure, shortened: as §2
# [7] = Postemergence, 125 g ai/ha, 0 to 100 scale where 0 is no effect and 100 is complete control
# [8] = Postemergence, 500 g ai/ha, 0 to 100 scale, 0 is no effect, 100 is complete control
# [9] = Preemergence, 125 g ai/ha, 0 to 100 scale where 0 is no effect and 100 is complete control
# [10] = Preemergence, 500 g ai/ha, 0 to 100 scale, 0 no effect, 100 complete control
# [11] = Postemergence, 31 g ai/ha, 0 to 100 scale (0 no effect, 100 complete control)
# [12] = Postemergence, 125 g ai/ha, scale 0 to 100, 0 is no effect, 100 is complete control
# [13] = Postemergence, 250 g ai/ha, scale 0 to 100, 0 no effect, 100 complete control, 13 to 15 d
# [14] = postemergence, 62 g ai/ha, scale 0 to 100, 0 no effect, 100 complete control
# [15] = Preemergence, 500 g ai/ha, 0 to 100 scale where 0 is no effect and 100 is complete control
# [16] = Postemergence, 500 g ai/ha, visual rating after approx. 10 d, 0 to 100 scale (0 no effect, 100 complete control)
SMILES,"Plant response rating, Foxtail, Giant [1, 7]","Foxtail, Giant plant response rating [1, 8]","Foxtail, Giant plant response rating [1, 9]","Plant response rating, Ryegrass, Italian [2, 7]","Ryegrass, Italian plant response rating [2, 8]","Ryegrass, Italian plant response rating [2, 9]","Chickweed plant response rating [3, 11]","Plant response rating, Chickweed [3, 12]","Plant response rating, Chickweed [3, 13]","Chickweed plant response rating [3, 14]","Plant response rating, Barnyardgrass [4]","Plant response rating, Ducksalad [5]","Plant response rating, Sedge, Umbrella [6]","Plant response rating, Rice (rice (Oryza sativa))","Plant response rating, Foxtail, Giant [1, 15]","Plant response rating, Ryegrass, Italian [2, 15]",also measured
Cc1nn(C)c(=O)c(-c2c(C)sc3ccccc23)c1O [Compound 65],20,90,60,90,100,90,55,90,90,90,0,0,0,0,–,–,"Plant response rating, Foxtail, Giant [1, 10]: 90; Plant response rating, Ryegrass, Italian [2, 10]: 100"
Cc1cc(C)c2sc(C)c(-c3c(OC(=O)OC(C)C)c(C)nn(C)c3=O)c2c1 [Compound 67],80,90,80,70,90,90,90,95,95,95,0,0,0,0,–,–,"Plant response rating, Foxtail, Giant [1, 10]: 100; Plant response rating, Ryegrass, Italian [2, 10]: 100"
CCOC(=O)Oc1c(C)nn(C)c(=O)c1-c1c(C)ccc2ccccc12 [Compound 73],90,100,90,100,100,100,90,95,95,90,0,0,0,0,100,100,–
COC(=O)Oc1c(C)nn(C)c(=O)c1-c1c(C)sc2c(C)cc(C)cc12 [Compound 81],90,100,100,100,100,100,90,95,95,90,60,70,80,60,100,100,–
CCOC(=O)Oc1c(C)nn(C)c(=O)c1-c1c(C)sc2ccc(C)cc12 [Compound 82],50,70,70,70,80,80,90,90,98,90,0,0,0,0,90,90,–
CCOC(=O)Oc1c(C)nn(C)c(=O)c1-c1c(C)sc2c(C)cc(C)cc12 [Compound 83],90,100,100,90,100,100,90,95,100,95,60,70,90,30,100,100,–
Cc1cc(C)c2sc(C)c(-c3c(OC(=O)OCCCl)c(C)nn(C)c3=O)c2c1 [Compound 85],90,90,100,90,90,100,90,95,100,95,50,50,80,50,100,100,–
C#CCOC(=O)Oc1c(C)nn(C)c(=O)c1-c1c(C)sc2ccc(C)cc12 [Compound 87],70,80,80,80,80,90,90,95,98,90,0,0,0,0,100,100,–
CC(=O)Oc1c(C#N)nn(C)c(=O)c1-c1c(C)ccc2ccccc12 [Compound 98],90,–,90,90,–,20,95,100,100,100,45,75,60,30,100,90,"Plant response rating, Foxtail, Giant [1, 16]: 100; Plant response rating, Ryegrass, Italian [2, 16]: 100"
COc1nn(C)c(=O)c(-c2c(C)sc3ccc(Cl)cc23)c1O [Compound 100],80,–,70,90,–,90,90,95,95,90,0,0,0,0,90,100,"Plant response rating, Foxtail, Giant [1, 16]: 80; Plant response rating, Ryegrass, Italian [2, 16]: 100"
CCC(=O)Oc1c(Cl)nn(C)c(=O)c1-c1c(C)sc2ccc(Cl)cc12 [Compound 111],70,–,80,90,–,90,–,100,98,98,0,75,75,0,100,100,"Plant response rating, Foxtail, Giant [1, 16]: 100; Plant response rating, Ryegrass, Italian [2, 16]: 100; Plant response rating, Chickweed ([3]; Postemergence, 31 g ai/ha, scale 0 to 100 (0 no effect, 100 complete control)): 95"
